Source: US11090319B2, “Therapeutic uses of pharmaceutical compositions comprising cyclic boronic acid ester derivatives” (Melinta Subsidiary Corp., priority 2010, dated 2021)

Experiments:
[1] = system: ECL1004 Enterobacter cloacae NMC-A; experiment: Checkerboard assay, biapenem potentiation; conditions: Biapenem MIC 8-fold; ECL1004 NMC-A class A
[2] = system: EC1007 Escherichia coli KPC-3; experiment: Checkerboard assay, biapenem potentiation; conditions: Biapenem MIC 8-fold; EC1007 KPC-3 class A
[3] = system: SM1000 Serratia marcescens SME-2; experiment: Checkerboard assay, biapenem potentiation; conditions: Biapenem MIC 8-fold; SM1000 SME-2 class A
[4] = system: KP1005 Klebsiella pneumoniae CTX-M-14; experiment: Checkerboard assay, ceftazidime potentiation; conditions: ceftazidime MIC 8-fold; KP1005 CTX-M-14 class A
[5] = system: KP1009 Klebsiella pneumoniae CTX-M-15; experiment: Checkerboard assay, ceftazidime potentiation; conditions: ceftazidime MIC 8-fold; KP1009 CTX-M-15 class A
[6] = system: EC1008 Escherichia coli CTX-M-3; experiment: Checkerboard assay, ceftazidime potentiation; conditions: ceftazidime MIC 8-fold; EC1008 CTX-M-3 class A
[7] = system: KP1004 Klebsiella pneumoniae KPC-2; experiment: Checkerboard assay, ceftazidime potentiation; conditions: ceftazidime MIC 8-fold; KP1004 KPC-2 class A
[8] = system: KP1008 Klebsiella pneumoniae KPC-2; experiment: Checkerboard assay, ceftazidime potentiation; conditions: ceftazidime MIC 8-fold; KP1008 KPC-2 class A
[9] = system: EC1007 Escherichia coli KPC-3; experiment: Checkerboard assay, ceftazidime potentiation; conditions: ceftazidime MIC 8-fold; EC1007 KPC-3 class A
[10] = system: KP1010 Klebsiella pneumoniae SHV-12; experiment: Checkerboard assay, ceftazidime potentiation; conditions: ceftazidime MIC 8-fold; KP1010 SHV-12 class A
[11] = system: KP1012 Klebsiella pneumoniae SHV-18; experiment: Checkerboard assay, ceftazidime potentiation; conditions: ceftazidime MIC 8-fold; KP1012 SHV-18 class A
[12] = system: ec306 Escherichia coli SHV-2; experiment: Checkerboard assay, ceftazidime potentiation; conditions: ceftazidime MIC 8-fold; ec306 SHV-2 class A
[13] = system: ec307 Escherichia coli SHV-4; experiment: Checkerboard assay, ceftazidime potentiation; conditions: ceftazidime MIC 8-fold; ec307 SHV-4 class A
[14] = system: ec308 Escherichia coli SHV-5; experiment: Checkerboard assay, ceftazidime potentiation; conditions: ceftazidime MIC 8-fold; ec308 SHV-5 class A
[15] = system: EC1009 Escherichia coli TEM-10; experiment: Checkerboard assay, ceftazidime potentiation; conditions: ceftazidime MIC 8-fold; EC1009 TEM-10 class A
[16] = system: ec302 Escherichia coli TEM-10; experiment: Checkerboard assay, ceftazidime potentiation; conditions: ceftazidime MIC 8-fold; ec302 TEM-10 class A
[17] = system: EC1012 Escherichia coli TEM-12; experiment: Checkerboard assay, ceftazidime potentiation; conditions: ceftazidime MIC 8-fold; EC1012 TEM-12 class A
[18] = system: ec303 Escherichia coli TEM-12; experiment: Checkerboard assay, ceftazidime potentiation; conditions: ceftazidime MIC 8-fold; ec303 TEM-12 class A
[19] = system: EC1011 Escherichia coli TEM-26; experiment: Checkerboard assay, ceftazidime potentiation; conditions: ceftazidime MIC 8-fold; EC1011 TEM-26 class A
[20] = system: ec304 Escherichia coli TEM-26; experiment: Checkerboard assay, ceftazidime potentiation; conditions: ceftazidime MIC 8-fold; ec304 TEM-26 class A
[21] = system: ec300 Escherichia coli TEM-3; experiment: Checkerboard assay, ceftazidime potentiation; conditions: ceftazidime MIC 8-fold; ec300 TEM-3 class A
[22] = system: ec301 Escherichia coli TEM-6; experiment: Checkerboard assay, ceftazidime potentiation; conditions: ceftazidime MIC 8-fold; ec301 TEM-6 class A
[23] = system: CF1000 Citrobacter freundii Hyper AmpC expression; experiment: Checkerboard assay, ceftazidime potentiation; conditions: ceftazidime MIC 8-fold; CF1000 Hyper AmpC class C
[24] = system: ECL1003 Enterobacter cloacae Hyper AmpC expression; experiment: Checkerboard assay, ceftazidime potentiation; conditions: ceftazidime MIC 8-fold; ECL1003 Hyper AmpC class C
[25] = system: ec310 Escherichia coli ACT-1; experiment: Checkerboard assay, ceftazidime potentiation; conditions: ceftazidime MIC 8-fold; ec310 ACT-1 class C
[26] = system: EC1004 Escherichia coli CMY-2; experiment: Checkerboard assay, ceftazidime potentiation; conditions: ceftazidime MIC 8-fold; EC1004 CMY-2 class C
[27] = system: EC1010 Escherichia coli CMY-6; experiment: Checkerboard assay, ceftazidime potentiation; conditions: ceftazidime MIC 8-fold; EC1010 CMY-6 class C
[28] = system: EC1014 Escherichia coli DHA-1; experiment: Checkerboard assay, ceftazidime potentiation; conditions: ceftazidime MIC 8-fold; EC1014 DHA-1 class C
[29] = system: EC1006 Escherichia coli FOX-5; experiment: Checkerboard assay, ceftazidime potentiation; conditions: ceftazidime MIC 8-fold; EC1006 FOX-5 class C
[30] = system: EC1016 Escherichia coli FOX-5; experiment: Checkerboard assay, ceftazidime potentiation; conditions: ceftazidime MIC 8-fold; EC1016 FOX-5 class C
[31] = system: KP1007 Klebsiella pneumoniae OXA-10, qnrB4; experiment: Checkerboard assay, ceftazidime potentiation; conditions: ceftazidime MIC 8-fold; KP1007 OXA-10, qnrB4 class D
ECL1002 = experiment: Tigemonam potentiation assay (MPC@4), class C and D; type: cell-based, Enterobacter cloacae
Method: (§1) Selected β-lactamase inhibitors were also tested for their ability to potentiate the monobactam tigemonam.

EC1010 CMY-6 = experiment: as above; type: cell-based, Escherichia coli; conditions: EC1010 CMY-6 class C
Method: as §1

PAM2035 = experiment: as above; type: cell-based, Pseudomonas aeruginosa
Method: as §1

KP1007 OXA-10 = type: cell-based, Klebsiella pneumoniae
Method: as §1

KPX1001 OXA-2 = type: cell-based
Method: as §1

SMILES: O=C(O)CC1CC[C@H](NC(=O)Cc2cccs2)B(O)O1 (stereo partly drawn) [Compound 1, 2-((3R)-2-hydroxy-3-(2-(thiophen-2-yl)acetamido)-1,2-oxaborinan-6-yl)acetic acid]
- MPC8 [1]: Y (MPC8 of 0.16 μg/mL to 1 μg/mL)
- MPC8 [2]: X (MPC8 of less than 0.16 μg/mL)
- MPC8 [3]: Y (MPC8 of 0.16 μg/mL to 1 μg/mL)
- MPC8 [4]: Z (MPC8 of greater than 10 μg/mL)
- MPC8 [5]: Y (MPC8 of greater than 2.5 μg/mL to 10 μg/mL)
- MPC8 [6]: X (MPC8 of 2.5 μg/mL or less)
- MPC8 [7]: X (MPC8 of 2.5 μg/mL or less)
- MPC8 [8]: X (MPC8 of 2.5 μg/mL or less)
- MPC8 [9]: X (MPC8 of 2.5 μg/mL or less)
- MPC8 [10]: Y (MPC8 of greater than 2.5 μg/mL to 10 μg/mL)
- MPC8 [11]: Y (MPC8 of greater than 2.5 μg/mL to 10 μg/mL)
- MPC8 [12]: Y (MPC8 of greater than 2.5 μg/mL to 10 μg/mL)
- MPC8 [13]: Y (MPC8 of greater than 2.5 μg/mL to 10 μg/mL)
- MPC8 [14]: Y (MPC8 of greater than 2.5 μg/mL to 10 μg/mL)
- MPC8 [15]: Z (MPC8 of greater than 10 μg/mL)
- MPC8 [16]: Z (MPC8 of greater than 10 μg/mL)
- MPC8 [17]: Y (MPC8 of greater than 2.5 μg/mL to 10 μg/mL)
- MPC8 [18]: Y (MPC8 of greater than 2.5 μg/mL to 10 μg/mL)
- MPC8 [19]: Z (MPC8 of greater than 10 μg/mL)
- MPC8 [20]: Z (MPC8 of greater than 10 μg/mL)
- MPC8 [21]: Y (MPC8 of greater than 2.5 μg/mL to 10 μg/mL)
- MPC8 [22]: Z (MPC8 of greater than 10 μg/mL)
- MPC8 [23]: Y (MPC8 of greater than 2.5 μg/mL to 10 μg/mL)
- MPC8 [24]: Z (MPC8 of greater than 10 μg/mL)
- MPC8 [25]: X (MPC8 of 2.5 μg/mL or less)
- MPC8 [26]: X (MPC8 of 2.5 μg/mL or less)
- MPC8 [27]: Y (MPC8 of greater than 2.5 μg/mL to 10 μg/mL)
- MPC8 [28]: Z (MPC8 of greater than 10 μg/mL)
- MPC8 [29]: Y (MPC8 of greater than 2.5 μg/mL to 10 μg/mL)
- MPC8 [30]: Z (MPC8 of greater than 10 μg/mL)
- MPC8 [31]: Y (MPC8 of greater than 2.5 μg/mL to 10 μg/mL)

SMILES: CC1(C)[C@H](NC(=O)/C(=N\OCC(=O)O)c2csc(N)n2)C(=O)N1OS(=O)(=O)O [Tigemonam]
- Tigemonam MIC (ECL1002): 32 µg/mL
- Tigemonam MIC (EC1010 CMY-6): 16 µg/mL
- Tigemonam MIC (PAM2035): 8 µg/mL
- Tigemonam MIC (KP1007 OXA-10): 256 µg/mL
- Tigemonam MIC (KPX1001 OXA-2): 8 µg/mL
